Where “and” joins values, the source holds several entries; their conditions need not be identical. Equal values may be shown once. Calls of active or inactive are those of the source. No rule for the calls is given here.
System: rodent lifetime carcinogenesis bioassay, tumor incidence TD50
Assay: chronic cancer bioassays in animals – CPDB, compiled studies (AID 1745844)
Details: in feed

**Q.** Which results are given for `ClC1=C(Cl)[C@]2(Cl)[C@@H]3[C@@H]4C[C@@H]([C@H]5O[C@@H]45)[C@@H]3[C@@]1(Cl)C2(Cl)Cl`?
**A.** TD50 (hamster, strain Syrian Golden, females, site: any site (literature study), lesion: several types, types named in the paper, dosed 100 weeks, study length 114 weeks): 355 mg/kg/day (inactive); TD50 (hamster, strain Syrian Golden, females, site: liver, lesion: hepatoma, dosed 100 weeks, study length 114 weeks): 176 mg/kg/day (inactive); carcinogen call (hamster, strain Syrian Golden, females, site: lung, lesion: one or several types, types not named, dosed 100 weeks, study length 114 weeks): negative (inactive); TD50 (hamster, strain Syrian Golden, males, site: any site (literature study), lesion: several types, types named in the paper, dosed 114 weeks, study length 114 weeks): 69.9 mg/kg/day (inactive); TD50 (hamster, strain Syrian Golden, males, site: liver, lesion: hepatoma, dosed 114 weeks, study length 114 weeks): 198 mg/kg/day (inactive); TD50 (hamster, strain Syrian Golden, males, site: lung, lesion: adenoma, dosed 114 weeks, study length 114 weeks): 732 mg/kg/day (inactive); carcinogen call (mouse, strain B6C3F1, females, site: any site (literature study), lesion: several types, types named in the paper, dosed 80 weeks, study length 91 weeks): negative (inactive); TD50 (mouse, strain B6C3F1, females, site: liver, lesion: hepatocellular adenoma + hepatocellular carcinoma + neoplastic nodule, dosed 80 weeks, study length 91 weeks): 1.09 mg/kg/day; TD50 (mouse, strain B6C3F1, females, site: lung, lesion: alveolar/bronchiolar adenoma + alveolar/bronchiolar carcinoma, dosed 80 weeks, study length 91 weeks): 5.05 mg/kg/day; TD50 (mouse, strain B6C3F1, males, site: any site (literature study), lesion: several types, types named in the paper, dosed 80 weeks, study length 91 weeks): 1.06 mg/kg/day (inactive); TD50 (mouse, strain B6C3F1, males, site: liver, lesion: hepatocellular adenoma + hepatocellular carcinoma + neoplastic nodule, dosed 80 weeks, study length 91 weeks): 1.04 mg/kg/day; TD50 (mouse, strain B6C3F1, males, site: liver, lesion: hepatocellular carcinoma, dosed 80 weeks, study length 89 weeks): 1.35 mg/kg/day; TD50 (mouse, strain B6C3F1, males, site: lung, lesion: alveolar/bronchiolar adenoma + alveolar/bronchiolar carcinoma, dosed 80 weeks, study length 91 weeks): 24.7 mg/kg/day; TD50 (mouse, strain C3HeB/Fe, both sexes, site: any site (literature study), lesion: benign tumor, dosed 104 weeks, study length 104 weeks): 3.1 mg/kg/day; TD50 (mouse, strain C3HeB/Fe, both sexes, site: liver, lesion: hepatocellular adenoma, dosed 104 weeks, study length 104 weeks): 4.09 mg/kg/day; TD50 (mouse, strain C3HeB/Fe, both sexes, site: liver, lesion: hepatocellular carcinoma, dosed 104 weeks, study length 104 weeks): 167 mg/kg/day; TD50 (mouse, strain C3HeB/Fe, both sexes, site: liver, lesion: hepatoma, dosed 104 weeks, study length 104 weeks): 3.08 mg/kg/day; TD50 (mouse, strain CF-1, females, site: liver, lesion: liver-cell tumor, type B, dosed 90 weeks, study length 90 weeks): 2.59 mg/kg/day; TD50 (mouse, strain CF-1, females, site: liver, lesion: liver-cell tumor, type B, dosed 106 weeks, study length 106 weeks): 3.96 mg/kg/day; TD50 (mouse, strain CF-1, females, site: liver, lesion: liver-cell tumor, type B, dosed 108 weeks, study length 128 weeks): 9.72 mg/kg/day; TD50 (mouse, strain CF-1, females, site: liver, lesion: liver-cell tumor, type B, dosed 122 weeks, study length 138 weeks): 1.96 mg/kg/day; TD50 (mouse, strain CF-1, females, site: liver, lesion: liver-cell tumor, type B, dosed 128 weeks, study length 128 weeks): 12.1 mg/kg/day; TD50 (mouse, strain CF-1, females, site: liver, lesion: liver-cell tumor, dosed 110 weeks, study length 110 weeks): 1.59 mg/kg/day; TD50 (mouse, strain CF-1, females, site: liver, lesion: several types, types named in the paper, dosed 90 weeks, study length 90 weeks): 1.05 mg/kg/day; TD50 (mouse, strain CF-1, females, site: liver, lesion: several types, types named in the paper, dosed 106 weeks, study length 106 weeks): 1.16 mg/kg/day; TD50 (mouse, strain CF-1, females, site: liver, lesion: several types, types named in the paper, dosed 108 weeks, study length 128 weeks): 1.49 mg/kg/day; TD50 (mouse, strain CF-1, females, site: liver, lesion: several types, types named in the paper, dosed 110 weeks, study length 110 weeks): 0.567 mg/kg/day; TD50 (mouse, strain CF-1, females, site: liver, lesion: several types, types named in the paper, dosed 122 weeks, study length 138 weeks): 0.642 mg/kg/day; TD50 (mouse, strain CF-1, females, site: liver, lesion: several types, types named in the paper, dosed 128 weeks, study length 128 weeks): 3.11 mg/kg/day; carcinogen call (mouse, strain CF-1, females, site: lung, lesion: adenoma, dosed 90 weeks, study length 90 weeks): negative (inactive); TD50 (mouse, strain CF-1, females, site: lung, lesion: adenoma, dosed 106 weeks, study length 106 weeks): 5.69 mg/kg/day (inactive); carcinogen call (mouse, strain CF-1, females, site: lung, lesion: adenoma, dosed 108 weeks, study length 128 weeks): negative (inactive); TD50 (mouse, strain CF-1, females, site: lung, lesion: adenoma, dosed 122 weeks, study length 138 weeks): 0.606 mg/kg/day (inactive); carcinogen call (mouse, strain CF-1, females, site: lung, lesion: adenoma, dosed 128 weeks, study length 128 weeks): negative (inactive); carcinogen call (mouse, strain CF-1, females, site: lung, lesion: carcinoma, dosed 90 weeks, study length 90 weeks): negative (inactive); carcinogen call (mouse, strain CF-1, females, site: lung, lesion: carcinoma, dosed 106 weeks, study length 106 weeks): negative (inactive); carcinogen call (mouse, strain CF-1, females, site: lung, lesion: carcinoma, dosed 108 weeks, study length 128 weeks): negative (inactive); TD50 (mouse, strain CF-1, females, site: lung, lesion: carcinoma, dosed 122 weeks, study length 138 weeks): 1.78 mg/kg/day (inactive); carcinogen call (mouse, strain CF-1, females, site: lung, lesion: carcinoma, dosed 128 weeks, study length 128 weeks): negative (inactive); carcinogen call (mouse, strain CF-1, females, site: lung, lesion: one or several types, types not named, dosed 110 weeks, study length 110 weeks): negative (inactive); TD50 (mouse, strain CF-1, males, site: liver, lesion: liver-cell tumor, type B, dosed 110 weeks, study length 124 weeks): 4.02 mg/kg/day; TD50 (mouse, strain CF-1, males, site: liver, lesion: liver-cell tumor, type B, dosed 112 weeks, study length 128 weeks): 4.66 mg/kg/day; TD50 (mouse, strain CF-1, males, site: liver, lesion: liver-cell tumor, type B, dosed 120 weeks, study length 134 weeks): 1.68 mg/kg/day; TD50 (mouse, strain CF-1, males, site: liver, lesion: liver-cell tumor, type B, dosed 128 weeks, study length 128 weeks): 5.12 mg/kg/day and 6.58 mg/kg/day; TD50 (mouse, strain CF-1, males, site: liver, lesion: liver-cell tumor, dosed 110 weeks, study length 110 weeks): 1.28 mg/kg/day; carcinogen call (mouse, strain CF-1, males, site: liver, lesion: several types, types named in the paper, dosed 110 weeks, study length 110 weeks): positive; TD50 (mouse, strain CF-1, males, site: liver, lesion: several types, types named in the paper, dosed 110 weeks, study length 124 weeks): 0.713 mg/kg/day; TD50 (mouse, strain CF-1, males, site: liver, lesion: several types, types named in the paper, dosed 112 weeks, study length 128 weeks): 1.12 mg/kg/day; TD50 (mouse, strain CF-1, males, site: liver, lesion: several types, types named in the paper, dosed 120 weeks, study length 134 weeks): 0.547 mg/kg/day; TD50 (mouse, strain CF-1, males, site: liver, lesion: several types, types named in the paper, dosed 128 weeks, study length 128 weeks): 0.913 mg/kg/day and 1.91 mg/kg/day; carcinogen call (mouse, strain CF-1, males, site: lung, lesion: adenoma, dosed 110 weeks, study length 124 weeks): negative (inactive); carcinogen call (mouse, strain CF-1, males, site: lung, lesion: adenoma, dosed 112 weeks, study length 128 weeks): negative (inactive); TD50 (mouse, strain CF-1, males, site: lung, lesion: adenoma, dosed 120 weeks, study length 134 weeks): 2.13 mg/kg/day (inactive); carcinogen call (mouse, strain CF-1, males, site: lung, lesion: adenoma, dosed 128 weeks, study length 128 weeks): negative (inactive); carcinogen call (mouse, strain CF-1, males, site: lung, lesion: carcinoma, dosed 110 weeks, study length 124 weeks): negative (inactive); carcinogen call (mouse, strain CF-1, males, site: lung, lesion: carcinoma, dosed 112 weeks, study length 128 weeks): negative (inactive); TD50 (mouse, strain CF-1, males, site: lung, lesion: carcinoma, dosed 120 weeks, study length 134 weeks): 3.71 mg/kg/day (inactive); carcinogen call (mouse, strain CF-1, males, site: lung, lesion: carcinoma, dosed 128 weeks, study length 128 weeks): negative (inactive); carcinogen call (mouse, strain CF-1, males, site: lung, lesion: one or several types, types not named, dosed 110 weeks, study length 110 weeks): negative (inactive); carcinogen call (rat, strain CFE, females, site: any site (literature study), lesion: several types, types named in the paper, dosed 104 weeks, study length 104 weeks): negative (inactive); TD50 (rat, strain CFE, males, site: any site (literature study), lesion: several types, types named in the paper, dosed 104 weeks, study length 104 weeks): 2.01 mg/kg/day (inactive); TD50 (rat, strain Fischer 344, females, site: any site (literature study), lesion: several types, types named in the paper, dosed 105 weeks, study length 104 weeks): 489 mg/kg/day (inactive); TD50 (rat, strain Fischer 344, males, site: any site (literature study), lesion: several types, types named in the paper, dosed 105 weeks, study length 104 weeks): 7.28 mg/kg/day (inactive); TD50 (rat, strain Not specified, females, site: any site (literature study), lesion: one or several types, types not named, dosed 104 weeks, study length 104 weeks): 57.2 mg/kg/day (inactive); TD50 (rat, strain Not specified, males, site: any site (literature study), lesion: one or several types, types not named, dosed 104 weeks, study length 104 weeks): 40.5 mg/kg/day (inactive); carcinogen call (rat, strain Osborne-Mendel, both sexes, site: any site (literature study), lesion: several types, types named in the paper, dosed 104 weeks, study length 104 weeks): positive; TD50 (rat, strain Osborne-Mendel, females, site: adrenal gland, lesion: cortical adenoma + cortical carcinoma, dosed 90 weeks, study length 109 weeks): 4.42 mg/kg/day (inactive); carcinogen call (rat, strain Osborne-Mendel, females, site: any site (literature study), lesion: several types, types named in the paper, dosed 90 weeks, study length 110 weeks): negative (inactive); carcinogen call (rat, strain Osborne-Mendel, females, site: any site (literature study), lesion: several types, types named in the paper, dosed 121 weeks, study length 126 weeks): negative (inactive); TD50 (rat, strain Osborne-Mendel, females, site: liver, lesion: hepatocellular adenoma + hepatocellular carcinoma + neoplastic nodule, dosed 90 weeks, study length 110 weeks): 38.4 mg/kg/day; carcinogen call (rat, strain Osborne-Mendel, females, site: liver, lesion: one or several types, types not named, dosed 121 weeks, study length 126 weeks): negative (inactive); TD50 (rat, strain Osborne-Mendel, males, site: any site (literature study), lesion: several types, types named in the paper, dosed 90 weeks, study length 110 weeks): 3.34 mg/kg/day (inactive); carcinogen call (rat, strain Osborne-Mendel, males, site: any site (literature study), lesion: several types, types named in the paper, dosed 126 weeks, study length 126 weeks): negative (inactive); carcinogen call (rat, strain Osborne-Mendel, males, site: liver, lesion: hemangioma, dosed 126 weeks, study length 126 weeks): negative (inactive)

Reference: PubChem BioAssay AID1745844 (Carcinogenic Potency Database (CPDB), 2022)
